Data taken from patent US20210195892A1, “COMPOSITION AND METHOD FOR MICROBIAL CONTROL ON MATERIAL SURFACES” (Microban Products Company, priority 2019, published 2021).
Structures can show the parent of a compound that is named as a salt.

What was measured:
Aspergillus niger (An) = test: ASTM E2180 protocol, fungus; assay type: cell-based
[1] = Thermogravimetric analysis (TGA) at 10° C./min; assay type: physicochemical; conditions: for temperature at which volatization started: TGA 10° C./min, FIG. 2
bacteria = test: Antibacterial efficacy of treated PP plaques (ISO 22196); assay type: cell-based; conditions: for bacterial efficacy per the ISO 22196 test: salts alone in PP, any active concentration up to 1%
Protocol: In addition to processing at 200° C., samples were run with PP at 250° C. to simulate the use of these GRAS acids in polymers that process at higher temperatures than polypropylene. Samples were also run using extended residence times in the injection molding machine (from the normal 30 second residence time to 120 seconds residence time) to simulate a process with a longer cycle time that would hold the polymer material at temperature for an extended period of time—the extended cycle were run at both 200° C. and 240° C.

Row | Compound | temperature at which volatization started [1] | bacterial efficacy per the ISO 22196 test (bacteria) | further results
1 | O=C(O)c1ccccc1 [GBA, benzoic acid] | approximately 100 °C |  | reduction in fungal growth (Aspergillus niger (An); incorporated into EVA): over 90%; reductions in fungal growth (Aspergillus niger (An); incorporated into PE): over 99%
2 | O=C(O)CC(O)(CC(=O)O)C(=O)O [GCA, citric acid] | 200 °C |  | antibacterial efficacy (bacteria; PP test plaques at 0.5% and 1% active level): good at the higher level but fell off at the lower level
3 | C/C=C/C=C/C(=O)[O-].[K+] [GKS, potassium sorbate] |  | no significant bacterial efficacy | 
4 | O=C([O-])c1ccccc1.[Na+] [GNB, sodium benzoate] |  | no significant bacterial efficacy | 
5 | O=C(O)CC(O)(CC(=O)O)C(=O)O [GNC, sodium citrate] |  | no significant bacterial efficacy | weight loss in TGA ([1]; TGA 10° C./min up to 275° C., attributed to water content): approximately 10%
6 | C/C=C/C=C/C(=O)O [GSA, sorbic acid] | approximately 100 °C |  | efficacy as low as (level in PP) (bacteria; further experiments, PP): 1000 ppm
